Columns and labels:
[1] = human, in vivo
Description: The pharmacokinetics of ceftaroline were evaluated in adolescent patients (ages 12 to 17) with normal renal function.
No dose adjustment is required based on gender.

[2] = tested on: CYP1A1, CYP1A2, CYP2A6, CYP2B6, CYP2C8, CYP2C9, CYP2C19, CYP2D6, CYP2E1 and CYP3A4; experiment: Cytochrome P450 inhibition in human liver microsomes; format: in vitro ADME; settings: microsomes
[3] = tested on: complicated skin and skin structure infections (cSSSI); experiment: Two Phase 3 studies in cSSSI, clinical cure at TOC; format: in vivo, human; settings: co-primary CE and MITT populations
Description: A total of 1396 adults with clinically documented complicated skin and skin structure infections (cSSSI) were enrolled in two randomized, multi-center, multinational, double-blind, studies comparing 600 mg ceftaroline fosamil administered intravenously over 1 hour every 12 hours to vancomycin plus aztreonam [1 g vancomycin administered intravenously over 1 hour followed by 1 g aztreonam administered intravenously over 1 hour every 12 hours]. Patients with cSSSI (deep/extensive cellulitis, a major abscess, a wound infection [surgical or traumatic], infected insect bites, burns or ulcers, lower extremity infection in patients with diabetes mellitus or peripheral vascular disease), were enrolled in the studies. Treatment duration was […] days. A switch to oral therapy was not allowed. The Modified Intent-to-Treat (MITT) population included all patients who received any amount of study drug according to their randomized treatment group.
The primary efficacy endpoint was clinical response at the Test of Cure (TOC) visit in the co-primary CE and MITT populations (Table 2). […] In a subgroup analysis (CE population), the comparative clinical cure rates between the ceftaroline group and the vancomycin plus aztreonam group were not affected by age, gender, race, ethnicity, or weight.

MDRSP [4] = experiment: Example 4 CAP study, outcome by baseline pathogen; format: in vivo, S. pneumoniae
From the text: (§1) Per-pathogen clinical cure rate and favorable microbiological outcome rate at TOC in the mMITTE and ME Populations;

H. influenzae = experiment: Example 4 CAP study, outcome by baseline pathogen; format: in vivo
From the text: as §1

H. parainfluenzae = experiment: Example 4 CAP study, outcome by baseline pathogen; format: in vivo
From the text: as §1

K. pneumoniae = experiment: Example 4 CAP study, outcome by baseline pathogen; format: in vivo
From the text: as §1

S. aureus = experiment: Example 4 CAP study, outcome by baseline pathogen; format: in vivo
From the text: as §1

S. pneumoniae = experiment: Example 4 CAP study, outcome by baseline pathogen; format: in vivo
From the text: as §1

MDRSP [5] = experiment: Example 5 CAP study, outcome by baseline pathogen; format: in vivo, S. pneumoniae
From the text: as §1

[6] = human, in vivo; remark: listed apart in the source
[7] = human, in vivo; remark: listed apart in the source
Description: Study drug: Ceftaroline fosamil was administered in two consecutive 300 mg intravenous (IV) infusions over 30 minutes, every 12 hours (q12h). The 600-mg dose of ceftaroline fosamil infused over 60 minutes was split into two infusions in order to maintain the blind. For subjects with moderate renal impairment (30 mL/min<CrCl≤50 mL/min), as estimated by the Cockroft-Gault formula, unblinded pharmacy staff or unblinded study staff could adjust the dose of ceftaroline fosamil to two consecutive 200 mg infusions and readjust dose to two 300 mg infusions when renal function improved (CrCl>50 mL/min). The duration of treatment was between 5 to 7 days.
All subjects initially received two doses (500 mg every 12 hours) of oral adjunctive therapy with clarithromycin following randomization.
All subjects who received any amount of study drug were included in the safety analysis. Safety measures included monitoring for adverse events (AE) up to TOC and serious adverse events (SAE) through LFU; recording vital signs, physical examination, electrocardiogram (ECG), and clinical laboratory findings (clinical chemistry, hematology, and urinalysis); at prespecified times throughout the study.

clinical = settings: human, in vivo

SMILES: CCO/N=C(\C(=O)N[C@@H]1C(=O)N2C(C(=O)[O-])=C(Sc3nc(-c4cc[n+](C)cc4)cs3)CS[C@H]12)c1nsc(N)n1 [Ceftaroline, ceftaroline]
- AUC higher in female vs male subjects (trend) ([1]; both): 6-15%
- Cmax higher in female vs male subjects (trend) ([1]; both): 17-22%
- mean recovery in the dialysate, share of the administered dose ([1]; 4 h): 21.6%
- mean AUC higher than in healthy young adults (18-45 years) ([1]; iv, 600 mg): ~33%
- inhibition of major cytochrome P450 isoenzymes [2]: neither ceftaroline fosamil nor ceftaroline inhibits
- clinical response at TOC, comparison with comparator [3]: non-inferior to vancomycin plus aztreonam
- Favorable Microbiological Outcome at TOC by Baseline Pathogen (MDRSP [4]; Example 4, ME): 2/2 (100.0)
- Clinical Cure Rate at the TOC Visit by Baseline Pathogen (MDRSP [4]; Example 4, ME Population): 2/2 (100.0)
- Favorable Microbiological Outcome at TOC by Baseline Pathogen (H. influenzae; Example 4, ME): 13/15 (86.7)
- Clinical Cure Rate at the TOC Visit by Baseline Pathogen (H. influenzae; Example 4, ME Population): 13/15 (86.7)
- Favorable Microbiological Outcome at TOC by Baseline Pathogen (H. parainfluenzae; Example 4, ME): 9/9 (100.0)
- Clinical Cure Rate at the TOC Visit by Baseline Pathogen (H. parainfluenzae; Example 4, ME Population): 9/9 (100.0)
- Favorable Microbiological Outcome at TOC by Baseline Pathogen (K. pneumoniae; Example 4, ME): 6/6 (100.0)
- Clinical Cure Rate at the TOC Visit by Baseline Pathogen (K. pneumoniae; Example 4, ME Population): 6/6 (100.0)
- Favorable Microbiological Outcome at TOC by Baseline Pathogen (S. aureus; Example 4, ME): 11/15 (73.3)
- Clinical Cure Rate at the TOC Visit by Baseline Pathogen (S. aureus; Example 4, ME Population): 10/15 (66.7)
- Favorable Microbiological Outcome at TOC by Baseline Pathogen (S. pneumoniae; Example 4, ME): 35/39 (89.7)
- Clinical Cure Rate at the TOC Visit by Baseline Pathogen (S. pneumoniae; Example 4, ME Population): 33/39 (84.6)
- Favorable Microbiological Outcome at TOC by Baseline Pathogen (MDRSP [5]; Example 5, ME): 2/2 (100.0)
- Clinical Cure Rate at the TOC Visit by Baseline Pathogen (MDRSP [5]; Example 5, ME Population): 2/2 (100.0)
- CL/Fm [6]: 9.60 (1.40) L/h
- dose dependence of Cmax and AUC [6]: increased approximately in proportion to increases in dose
- t1/2 [6]: 2.66 (0.40) h
- Adverse event: Constipation [7]: 7 (2.3) %
- TEAEs assessed as drug related by the Investigators [7]: 17.1%
- study-drug-related TEAE: headache [7]: 1.0%
- study-drug-related TEAE: hepatic enzyme increased [7]: 0.3%
- study-drug-related TEAE: sinus bradychardia [7]: 1.0%
- clearance (clinical; CL/Fm): 160 mL/min
- half-life (clinical; mean plasma terminal elimination half-life): ~150 min
- half-life (clinical; t1/2): 96 min

Source: patent US20180303853A1, “COMPOSITIONS AND METHODS FOR TREATING BACTERIAL INFECTIONS USING CEFTAROLINE” (priority 2017, published 2018)
